These results are taken from patent US20240270723A1, “SUBSTITUTED HETEROCYCLIC COMPOUNDS” (BRISTOL-MYERS SQUIBB COMPANY, priority 2021, published 2024).

One data set in a line: in vitro. As to conditions: human, Caco-2, pH 7.4.
The subject of data set [1] is IFNα-induced pSTAT5 in human whole blood (CD3 positive population). The data set can be described thus: IFNα-Induced STAT Phosphorylation in Human Whole Blood. It counts as cell-based. Particulars: 1 h incubation with compound, 1000 U/mL IFNα A/D for 15 min, pSTAT5 in CD3 positive cells, read-out: Human Whole blood IFNa pSTAT5 IC50. The method, then: IFNα-Induced STAT Phosphorylation in Human Whole Blood
After an hour long incubation with compound, human whole blood (drawn with ACD-A as anticoagulant) was stimulated with 1000 U/mL recombinant human IFNα A/D (R&D Systems 11200-2) for 15 min. The stimulation was stopped by adding Fix/Lyse buffer (BD 558049). Cells were stained with a CD3 FITC antibody (BD 555916), washed, and permeabilized on ice using Perm III buffer (BD 558050). Cells were then stained with an Alexa-Fluor 647 pSTAT5 (pY694) antibody (BD 612599) for 60 min prior to analysis on the iQue Plus. The amount of pSTAT5 expression was quantitated by median fluorescence intensity after gating on the CD3 positive population.

The Papp A→B is the apparent permeability from the apical to the basolateral side of a cell layer. A low value points to slow passage. In general, efflux ratio refers to the permeability from basolateral to apical divided by that in the opposite direction, in the common usage. By IC50 is commonly meant the midpoint of a concentration-inhibition curve. Take `[2H]C([2H])([2H])NC(=O)c1nnc(NC(=O)C2CC2)cc1Nc1ccnc(-c2cnn(C)n2)c1OC` [Example 2, 6-(cyclopropanecarboxamido)-4-((3-methoxy-2-(2-methyl-2H-1,2,3-triazol-4-yl)pyridin-4-yl)amino)-N-(methyl-d3)pyridazine-3-carboxamide]: in the data set “in vitro”, the Papp A→B at 2 h, 3 μM worked out at 12.2 ×10⁻⁶ cm/s and the efflux ratio at 2 h, 3 μM is 4.9. The IC50 in data set [1] is 50 nM.

Consider `[2H]C([2H])([2H])NC(=O)c1nnc(NC(=O)C2CC2)cc1Nc1cncc(-c2cnn(C3CC3)n2)c1OC` [Example 5, 6-(cyclopropanecarboxamido)-4-((5-(2-cyclopropyl-2H-1,2,3-triazol-4-yl)-4-methoxypyridin-3-yl)amino)-N-(methyl-d3)pyridazine-3-carboxamide], for which, in “in vitro”, the Papp A→B at 2 h, 3 μM came to 34.2 ×10⁻⁶ cm/s and the efflux ratio at 2 h, 3 μM turned out to be 1.1. For the same molecule, the 50% inhibitory concentration (IC50) in data set [1] came out at 1090 nM.

Take `[2H]C([2H])([2H])NC(=O)c1nnc(NC(=O)C2CC2)cc1Nc1ncnc(-c2cnn(C)n2)c1OC` [Example 1, 6-(cyclopropanecarboxamido)-4-((5-methoxy-6-(2-methyl-2H-1,2,3-triazol-4-yl)pyrimidin-4-yl)amino)-N-(methyl-d3)pyridazine-3-carboxamide]: in the data set “in vitro”, the Papp A→B at 2 h, 3 μM was 26.1 ×10⁻⁶ cm/s and the efflux ratio at 2 h, 3 μM turned out to be 1.8. In addition, in data set [1], the IC50 worked out at 320 nM.

For `[2H]C([2H])([2H])NC(=O)c1nnc(NC(=O)C2CC2)cc1Nc1ccnc(-c2cnn(C3CC3)n2)c1OC` [Example 3, 6-(cyclopropanecarboxamido)-4-((2-(2-cyclopropyl-2H-1,2,3-triazol-4-yl)-3-methoxypyridin-4-yl)amino)-N-(methyl-d3)pyridazine-3-carboxamide], in the data set “in vitro”, the Papp A→B at 2 h, 3 μM was 9.8 ×10⁻⁶ cm/s and the efflux ratio at 2 h, 3 μM was found to be 3.3. In data set [1], the IC50 was 190 nM.

For `[2H]C([2H])([2H])NC(=O)c1nnc(NC(=O)C2CC2)cc1Nc1ccnc(-c2cnn(C3CC3)c2)c1OC` [Example 4, 6-(cyclopropanecarboxamido)-4-((2-(1-cyclopropyl-1H-pyrazol-4-yl)-3-methoxypyridin-4-yl)amino)-N-(methyl-d3)pyridazine-3-carboxamide], in “in vitro”, the apical-to-basolateral permeability (Papp A→B) at 2 h, 3 μM came to 13.8 ×10⁻⁶ cm/s and the efflux ratio at 2 h, 3 μM turned out to be 2.8. Also, in data set [1], the IC50 turned out to be 350 nM.
